“And” between values parts separate entries of the source, which are not always exact repeats. Equal values may be shown once. Read-outs that look alike come from different tables or passages of the source.
Legend:
human Grp94 NBD = human Grp94 NBD (Homo sapiens, UniProt P14625); experiment: biochemical
C. albicans Hsp90 NBD = molecular target: T1, C. albicans Hsp90 NBD (Candida albicans, UniProt P46598); experiment: biochemical; assay type: binding
T1 construct: C. albicans Hsp90 (E7-K218); made in house; host or cells: E. coli Rosetta2

Hsp90 in HEPG2 lysate = settings: for FP signal (raw) / FP signal: HepG2 lysate; for FP signal: raw
human Hsp90 NBD = human Hsp90 NBD (Homo sapiens, UniProt P08238); experiment: biochemical
[1] = molecular target: T2, Hsp90 in C. albicans (SC5314) lysate (Candida albicans, UniProt P46598); experiment: biochemical; assay type: binding; settings: for FP signal: raw
T2 construct: endogenous in cells; host or cells: C. albicans SC5314 whole-cell lysate

Hsp90 in 3T3 lysate = experiment: FP competition in whole-cell lysate; assay type: binding, mouse; settings: quiescent 3T3 cells, FP
Method: After vortexing, cell lysate was frozen at −80 °C for 2 h, followed by thawing on ice. The vortex-freeze-thaw step was repeated. […] Aliquots were thawed immediately prior to use.

[2] = I50, single experiments Expt 1-3
[3] = IC50 (Equation 16), corrected I50, single experiments, unit inferred
[4] = Inhibitor Ki, single experiments Expt 1-3
[5] = Ki, purified NBD, Cy3-GdA probe, mean (± SEM) of 3 experiments
[6] = SC5314 lysate, 0.457 nM compound
[7] = SC5314 lysate, 1.372 nM compound
[8] = SC5314 lysate, 4.115 nM compound
[9] = SC5314 lysate, 12.346 nM compound
[10] = SC5314 lysate, 37.037 nM compound
[11] = SC5314 lysate, 111.111 nM compound
[12] = SC5314 lysate, 333.333 nM compound
[13] = SC5314 lysate, 1000 nM compound
[14] = SC5314 lysate, 3000 nM compound

T2 sequence (P46598 whole entry): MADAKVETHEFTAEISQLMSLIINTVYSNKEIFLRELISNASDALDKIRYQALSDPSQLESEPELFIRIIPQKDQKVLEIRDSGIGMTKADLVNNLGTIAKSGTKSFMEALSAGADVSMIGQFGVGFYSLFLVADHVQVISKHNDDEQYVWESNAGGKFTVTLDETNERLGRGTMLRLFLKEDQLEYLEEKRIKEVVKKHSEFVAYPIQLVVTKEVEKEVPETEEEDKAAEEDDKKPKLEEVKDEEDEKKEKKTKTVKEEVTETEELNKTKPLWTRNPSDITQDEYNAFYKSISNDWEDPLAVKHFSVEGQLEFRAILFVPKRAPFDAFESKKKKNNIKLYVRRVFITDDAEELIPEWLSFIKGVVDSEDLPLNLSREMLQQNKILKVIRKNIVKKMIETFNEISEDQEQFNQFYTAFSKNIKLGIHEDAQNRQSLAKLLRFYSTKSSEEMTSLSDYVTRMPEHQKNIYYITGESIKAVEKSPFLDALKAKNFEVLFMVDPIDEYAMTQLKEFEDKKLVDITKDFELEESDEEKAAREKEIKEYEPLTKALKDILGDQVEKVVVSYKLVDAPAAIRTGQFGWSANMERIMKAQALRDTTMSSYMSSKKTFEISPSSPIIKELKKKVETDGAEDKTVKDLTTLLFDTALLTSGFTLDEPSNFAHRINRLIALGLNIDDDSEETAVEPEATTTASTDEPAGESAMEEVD
Chain of human Grp94 NBD (P14625 63-337): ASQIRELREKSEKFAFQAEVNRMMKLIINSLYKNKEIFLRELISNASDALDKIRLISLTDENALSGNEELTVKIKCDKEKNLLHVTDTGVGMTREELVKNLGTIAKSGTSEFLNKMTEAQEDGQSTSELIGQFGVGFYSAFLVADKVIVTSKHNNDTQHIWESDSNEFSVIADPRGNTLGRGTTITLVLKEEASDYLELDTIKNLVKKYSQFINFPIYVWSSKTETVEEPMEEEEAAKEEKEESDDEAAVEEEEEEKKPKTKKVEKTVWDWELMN
Chain of human Hsp90 NBD (P08238 1-223): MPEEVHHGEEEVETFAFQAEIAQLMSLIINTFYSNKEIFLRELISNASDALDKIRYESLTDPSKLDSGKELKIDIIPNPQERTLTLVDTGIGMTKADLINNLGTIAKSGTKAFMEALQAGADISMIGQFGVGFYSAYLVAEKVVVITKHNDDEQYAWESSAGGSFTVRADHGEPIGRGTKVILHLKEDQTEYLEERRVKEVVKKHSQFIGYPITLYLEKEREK
T1 sequence (P46598 7-218): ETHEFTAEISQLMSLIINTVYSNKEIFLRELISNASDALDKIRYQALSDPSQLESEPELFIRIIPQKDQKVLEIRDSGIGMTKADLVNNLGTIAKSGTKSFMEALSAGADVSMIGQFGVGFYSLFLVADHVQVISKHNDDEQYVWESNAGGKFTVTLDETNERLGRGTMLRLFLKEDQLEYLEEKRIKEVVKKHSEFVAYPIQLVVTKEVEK

SMILES: COc1ccc(CON=C2C=CC=CC3OC3CC(C)OC(=O)c3c(O)cc(O)cc3C2)cc1 (stereo not drawn) [CMLD013075]
- IC50 (human Grp94 NBD; [2]): 429 nM and 490 nM and 261 nM
- IC50 (human Grp94 NBD; [3]): 426 nM and 486 nM and 257 nM
- Ki (human Grp94 NBD; [4]): 43.6 nM and 48.9 nM and 26.4 nM
- Ki (human Grp94 NBD; [5]): 39.6 nM
- IC50 (C. albicans Hsp90 NBD; corrected I50, single experiments, unit inferred, read-out: IC50 (Equation 16)): 77.3 nM and 78.8 nM and 44 nM
- Ki (C. albicans Hsp90 NBD; purified NBD, Cy3-GdA probe, mean (± SEM) of 3 experiments, read-out: Ki): 7.7 nM
- selectivity for fungal Hsp90 NBD over human Grp94 NBD (C. albicans Hsp90 NBD; purified NBDs, FP): ~ 5 fold and 5 fold
- selectivity for fungal Hsp90 NBD over human Hsp90 NBD (C. albicans Hsp90 NBD; purified NBDs, FP): ~ 28 fold and > 25 fold
- IC50 (C. albicans Hsp90 NBD; single experiments Expt 1-3, read-out: I50): 82.3 nM and 83.8 nM and 47.8 nM
- Ki (C. albicans Hsp90 NBD; single experiments Expt 1-3, read-out: Inhibitor Ki): 8.8 nM (2×) and 5.5 nM
- Ratio rel. GdA (HepG2) (Hsp90 in HEPG2 lysate; EC50 / EC50 of GdA in HepG2 lysate): 135.257
- Ratio rel. GdA (HepG2) (Hsp90 in HEPG2 lysate; EC50 relative to GdA, HEPG2 lysate): 135.257
- FP signal, Fxn Control (Hsp90 in HEPG2 lysate; HEPG2 lysate, log concentration 0.137354 (1.372 nM)): 0.9857
- FP signal, Fxn Control (Hsp90 in HEPG2 lysate; HEPG2 lysate, log concentration 0.61437 (4.115 nM)): 0.9905
- FP signal, Fxn Control (Hsp90 in HEPG2 lysate; HEPG2 lysate, log concentration 1.09153 (12.346 nM)): 1
- FP signal, Fxn Control (Hsp90 in HEPG2 lysate; HEPG2 lysate, log concentration 1.56864 (37.037 nM)): 1.005
- FP signal, Fxn Control (Hsp90 in HEPG2 lysate; HEPG2 lysate, log concentration 2.04576 (111.111 nM)): 0.9905
- FP signal, Fxn Control (Hsp90 in HEPG2 lysate; HEPG2 lysate, log concentration 2.52288 (333.333 nM)): 0.9762
- FP signal, Fxn Control (Hsp90 in HEPG2 lysate; HEPG2 lysate, log concentration 3 (1000 nM)): 0.8333
- FP signal, Fxn Control (Hsp90 in HEPG2 lysate; HEPG2 lysate, log concentration 3.47712 (3000 nM)): 0.5286
- FP signal, Fxn Control (Hsp90 in HEPG2 lysate; HEPG2 lysate, log concentration -0.340084 (0.457 nM)): 0.9857
- FP signal (raw) (Hsp90 in HEPG2 lysate; 0.457 nM): 207
- FP signal (Hsp90 in HEPG2 lysate; 0.457 nM compound): 207
- FP signal (raw) (Hsp90 in HEPG2 lysate; 1.372 nM): 207
- FP signal (Hsp90 in HEPG2 lysate; 1.372 nM compound): 207
- FP signal (raw) (Hsp90 in HEPG2 lysate; 4.115 nM): 208
- FP signal (Hsp90 in HEPG2 lysate; 4.115 nM compound): 208
- FP signal (raw) (Hsp90 in HEPG2 lysate; 12.346 nM): 210
- FP signal (Hsp90 in HEPG2 lysate; 12.346 nM compound): 210
- FP signal (raw) (Hsp90 in HEPG2 lysate; 37.037 nM): 211
- FP signal (Hsp90 in HEPG2 lysate; 37.037 nM compound): 211
- FP signal (raw) (Hsp90 in HEPG2 lysate; 111.111 nM): 208
- FP signal (Hsp90 in HEPG2 lysate; 111.111 nM compound): 208
- FP signal (raw) (Hsp90 in HEPG2 lysate; 333.333 nM): 205
- FP signal (Hsp90 in HEPG2 lysate; 333.333 nM compound): 205
- FP signal (raw) (Hsp90 in HEPG2 lysate; 1000 nM): 175
- FP signal (Hsp90 in HEPG2 lysate; 1000 nM compound): 175
- FP signal (raw) (Hsp90 in HEPG2 lysate; 3000 nM): 111
- FP signal (Hsp90 in HEPG2 lysate; 3000 nM compound): 111
- IC50 (human Hsp90 NBD; [2]): 1650 nM and 1630 nM and 1250 nM
- IC50 (human Hsp90 NBD; [3]): 1650 nM and 1620 nM and 1240 nM
- Ki (human Hsp90 NBD; [4]): 237 nM and 236 nM and 181 nM
- Ki (human Hsp90 NBD; [5]): 218 nM
- heat-shock reporter activation (293T reporter cells): activation required much higher concentrations
- normalized fungal selectivity in lysates ([1]; C. albicans SC5314 vs HEPG2 lysate, FP): 4.6 fold
- relative binding affinity in fungal vs mammalian lysates ([1]; C. albicans vs HEPG2 and 3T3 lysates, FP): higher
- EC50 ([1]; EC50, SC5314 lysate, not normalized, oxime panel experiment 220817): 505 nM
- Ratio re. GdA ([1]; EC50 relative to GdA, SC5314 lysate): 29.6649
- FP signal (raw) ([1]; SC5314 lysate, 0.457 nM): 200
- FP signal relative to 0 nM [1, 6]: 0.9709
- FP signal [1, 6]: 200
- FP signal (raw) ([1]; SC5314 lysate, 1.372 nM): 200
- FP signal relative to 0 nM [1, 7]: 0.9709
- FP signal [1, 7]: 200
- FP signal (raw) ([1]; SC5314 lysate, 4.115 nM): 199
- FP signal relative to 0 nM [1, 8]: 0.966
- FP signal [1, 8]: 199
- FP signal (raw) ([1]; SC5314 lysate, 12.346 nM): 199
- FP signal relative to 0 nM [1, 9]: 0.966
- FP signal [1, 9]: 199
- FP signal (raw) ([1]; SC5314 lysate, 37.037 nM): 196
- FP signal relative to 0 nM [1, 10]: 0.9515
- FP signal [1, 10]: 196
- FP signal (raw) ([1]; SC5314 lysate, 111.111 nM): 182
- FP signal relative to 0 nM [1, 11]: 0.8835
- FP signal [1, 11]: 182
- FP signal (raw) ([1]; SC5314 lysate, 333.333 nM): 146
- FP signal relative to 0 nM [1, 12]: 0.7087
- FP signal [1, 12]: 146
- FP signal (raw) ([1]; SC5314 lysate, 1000 nM): 69
- FP signal relative to 0 nM [1, 13]: 0.335
- FP signal [1, 13]: 69
- FP signal (raw) ([1]; SC5314 lysate, 3000 nM): 40
- FP signal relative to 0 nM [1, 14]: 0.1942
- FP signal [1, 14]: 40
- HepG2/SC5314 ([1]; ratio of GdA-normalized EC50s, human over fungal lysate): 4.5595
- HepG2/SC5314 ([1]; ratio of GdA-relative EC50 ratios, HepG2 over SC5314): 4.5595
- relative binding affinity in 3T3 lysate vs HEPG2 lysate (Hsp90 in 3T3 lysate): lower in 3T3 lysate than HEPG2 lysate
